In series [1] the test system is PHHs-NL-Mφ co-cultures. Briefly: Alamar Blue cell viability, PHHs-NL-Mφ co-cultures. As to conditions: 24 hours treatment, PHHs-NL-Mφ co-cultures vs PHHs monocultures, FIG. 5C. Type of series: cell-based, human. As for the experimental part: (§1) PHHs monocultures, PHHs-PHKCs co-cultures (FIG. 5A), PHHs-hPSC-KCs co-cultures (FIG. 5B) and PHHs-hPSC-Mac co-cultures (FIG. 5C) treated with LPS (solid lines) or left untreated (dashed lines) were exposed to Acetaminophen (APAP) 16 hours after LPS treatment. 24 hours after addition of the drug, cell viability was assayed using Alamar Blue. Cell viability is expressed as percentage of viable cells compared to vehicle control (DMSO). Data are presented as mean±s.d (n=3). * indicates statistically significant differences between LPS-activated monoculture and co-culture; # indicate statistically significant differences between non-activated monoculture and co-culture (p<0.05).
(§2) Previous reports have shown the suppression of CYP expression and activity in human and rat hepatocytes when co-cultured with Kupffer cells. […] Therefore, it was analyzed if differences could be identified between PHHs-PHKCs co-cultures and PHHs monocultures in toxicity responses to paradigm hepatotoxicants, and if this difference could be recapitulated in PHHs-hPSC-KCs or PHHs-hPSC-Mac co-cultures. The monocultures and co-cultures were treated with the paradigm hepatotoxicant acetaminophen for 24 hours, and cell viability was measured using Alamar Blue assay. Cell viability was quantified as percentage of […] compared to vehicle control (DMSO).
Background: Alamar Blue is a resazurin reagent that responds to reducing activity.

The subject of series [2] is PHHs-PHKCs co-cultures. Briefly: Alamar Blue cell viability, PHHs-PHKCs co-cultures. It counts as cell-based, human. As to conditions: 24 hours treatment, PHHs-PHKCs co-cultures vs PHHs monocultures, FIG. 5A. The procedure:
as §1, §2

The test system of series [3] is PHHs-hPSC-KCs co-cultures. Put plainly: Alamar Blue cell viability, PHHs-hPSC-KCs co-cultures. It counts as cell-based, human. As to conditions: 24 hours treatment, PHHs-hPSC-KCs co-cultures vs PHHs monocultures, FIG. 5B. As for the experimental part: as §1, §2
Series [4] relates to NL-Mφ (non-liver macrophages). Briefly: cytokine production (ELISA) and morphology upon LPS activation, NL-Mφ. Type of series: cell-based, human. The procedure:
(§3) FIG. 3A are phase contrast images showing morphological changes in hPSC-KCs (upper panel) and NL-Mφ (lower panel) following LPS treatment. Scale bar: 100 μm. […] Supernatant from cell cultures were collected 16 hours after LPS treatment and cytokine production was measured using ELISA. IL-6 and TNF4α (after LPS treatment) production was not detected in PHHs. TNF4α production was not detected in NL-Mφ before LPS treatment. Data are presented after normalization to cell numbers and the bars represent mean±s.d. (n=3). Dashed lines represent fold differences between cytokine production before and after LPS treatment (folds are indicated on top of the dashed lines). Solid lines represent p<0.05 (two-tailed paired t-test). […] No significant differences were observed between IL-6 levels in hPSC-KCs and PHKCs in terms of basal levels (no LPS treatment) and LPS-induced levels. The fold increase in TNF4α production in hPSC-KCs (33 fold) was similar to the fold increase in PHKCs (35 fold). […] It has been reported that Kupffer cells show a lower extent of cytokine production upon cytokine stimulation.
(§4) For activation of hPSC-KCs to examine cytokine production, lipopolysaccharide (LPS) was added to the culture medium during the last 16 hours of culture. Medium was collected at the end of the incubation period and morphological changes and cytokine production upon LPS activation was analyzed. […]
For orientation: ELISA stands for enzyme-linked immunosorbent assay.

Series [5] has as its system PHKCs (primary human Kupffer cells). Put plainly: cytokine production (ELISA) upon LPS activation, PHKCs. It counts as cell-based. As to conditions: LPS during last 16 hours of culture. The procedure:
as §3, §4

Series [6] has as its system primary human hepatocytes (PHHs). Put plainly: cytokine production (ELISA) upon LPS activation, PHHs. It counts as cell-based. As for the experimental part: as §3, §4
Series [7] concerns hPSC-KCs. Put plainly: cytokine production (ELISA) and morphology upon LPS activation, hPSC-KCs. Type of series: cell-based, human. As for the experimental part:
as §3
For activation of hPSC-KCs to examine cytokine production, lipopolysaccharide (LPS) was added to the culture medium during the last 16 hours of culture. Medium was collected at the end of the incubation period and morphological changes and cytokine production upon LPS activation was analyzed. […] The fold increase in TNF4α production in hPSC-KCs (33 fold) was similar to the fold increase in PHKCs (35 fold) (FIG. 3C).

Consider `CC(=O)Nc1ccc(O)cc1` [acetaminophen], for which the “cell death compared to PHHs monocultures” value in series [1] is recorded as “No difference in cell death”. Also, the “cell death compared to monoculture controls” value in series [2] and in series [3] was “higher cell death” in each case.

With lipopolysaccharide [LPS], the “levels of cytokines (IL-6, TNF4α)” value in series [4] (NL-Mφ compared to PHKCs and hPSC-KCs, FIG. 3B and 3C) is “much higher levels”. In addition, the morphological changes entry was “from round to flat and spread cells” in series [4] (NL-Mφ, LPS activation, FIG. 3A); “from round to flat and spread cells” in series [7] (LPS activation, FIG. 3A). Further, the “fold induction of IL-6 production” value is listed as 25 fold in series [5] (FIG. 3B) and “in the same range as that of the PHKCs” in series [7] (LPS during last 16 hours of culture, FIG. 3B). For the same molecule, the “fold increase in TNF4α production” value in series [5] (FIG. 3C) came out at 35 fold; in series [7] (LPS during last 16 hours of culture, FIG. 3C) it was 33 fold. Moreover, the IL-6 production entry in series [6] (FIG. 3B) is given as “below detectable levels”. Moreover, the TNF4α production entry in series [6] (upon LPS activation) is “below detectable levels”.

The record behind these values is patent US20190352610A1, “METHODS OF GENERATING HEPATIC MACROPHAGES AND USES THEREOF” (AGENCY FOR SCIENCE, TECHNOLOGY AND RESEARCH, priority 2017, published 2019).
